Laboratory results taken from US7166612B2, “Methods for reducing platelet activation platelet aggregaton or thrombosis” (Beth Israel Deaconess Medical Center, priority 2001, dated 2007).

Columns and labels:
[1] = tested on: patients suffering intermittent claudication; details: cited from earlier work
platelets [2] = experiment: agonist-induced platelet granule secretion (P-selectin expression, flow cytometry); format: cell-based, human
Method: In order to assay platelet activation by cell surface marker expression, fresh PRP is isolated from donors who have not ingested aspirin for two weeks prior to donation. PRP (40 μl) is incubated with known or suspected inhibitor in DMSO or DMSO alone for 15 min. The sample is then incubated with the indicated agonist (e.g., SFLLR) for 10 min. Following incubation of the sample with the indicated agonist, 10 μl of reaction mixture is transferred to 5 μl of phycoerythrin (PE)-conjugated AC 1.2 anti-P-selectin antibody (for assessment of P-selectin surface expression) or fluorescein isothiocyanate (FITC)-conjugated PAC-1 antibody (for assessment of GPIIbIIIa activation). PBS (500 μl) is added to the sample after a 20 min incubation and the platelets are analyzed immediately by flow cytometry. Flow cytometry can be performed using, for example, a Becton-Dickinson FACSCalibur flow cytometer or its equivalent. Fluorescent channels are set at logarithmic gain. Ten thousand particles are acquired for each sample. A 530/30 band pass filter is used for FL-1 fluorescence. A 585/42 band pass filter is used for FL-2 fluorescence. FITC is measured in the FL-1 channel and PE is measured in the FL-2 channel. Data are analyzed using, for example, CellQuest software on a Macintosh PowerPC, or their equivalents. […]
Each of the compounds was tested for inhibition of platelet activation in response to the agonists SFLLR (a thrombin mimic), U46619 (a thromboxane A2 mimic), ADP and the phorbol ester PMA.
Compounds were also tested by flow cytometry for the inhibition of SFLLR-induced GPIIbIIIa activation and P-selectin expression. In these experiments, freshly obtained PRP was prepared from healthy volunteers who had not ingested aspirin for two weeks prior to donation. Forty μl of PRP was incubated with inhibitor in DMSO or DMSO alone for 15 min. The sample was then incubated with the indicated agonist for 10 min. Following incubation of the sample with the indicated agonist, 10 μl of reaction mixture was transferred to 5 μl of PE-conjugated AC1.2 anti-P-selectin antibody (for assessment of P-selectin surface expression) or FITC-conjugated PAC-1 antibody (for assessment of GPIIbIIIa activation). PBS (500 μl) was added to the sample after a 20 min incubation and the platelets were analyzed immediately by flow cytometry. Flow cytometry was performed using a Becton-Dickinson FACSCalibur flow cytometer. Fluorescent channels were set at logarithmic gain. Ten thousand particles were acquired for each sample. A 530/30 band pass filter was used for FL-1 fluorescence. A 585/42 band pass filter was used for FL-2 fluorescence. FITC was measured in the FL-1 channel and PE was measured in the FL-2 channel. Data were analyzed using CellQuest software on a MacIntosh PowerPC.
Compound was tested for its ability to inhibit SFLLR-, U46619-, ADP-, PMA-, and collagen I-induced platelet α-granule secretion. In these assays, platelets were incubated with increasing doses of compound for 30 minutes. The platelets were then exposed to a maximally stimulatory dose of the indicated agonist. P-selectin surface expression was analyzed by flow cytometry using phycoerythrin-anti-P-selectin to monitor for α-granule secretion.

[3] = tested on: PGE1-induced cAMP levels in platelets; experiment: augmentation of PGE1-induced cAMP levels in platelets; format: cell-based, human; details: in words
Method: (A) Compound was tested for its ability to inhibit SFLLR-, U46619-, ADP-, PMA-, and collagen I-induced platelet α-granule secretion. (B) The effect of the compound on PGE1-stimulated cAMP elevation was analyzed. Platelets were incubated with increasing doses of pyridazinone compound for 30 minutes prior to the 2 minute incubation with PGE1. Platelets were subsequently lysed and cAMP level was assayed using a commercially available ELISA kit (Liao et al., 1998, Eur J Pharmacol 349, 107–14). […] Error bars represent mean ±1 SD (n=4), *P<0.001.
One frequent target of anti-platelet agents is phosphodiesterase III (PDE III). […] The assay is performed as described by Liao et al., 1998, Eur J Pharmacol 349,107–114, incorporated herein by reference. Briefly, aliquots of PRP are exposed to increasing concentrations of the agent for 20 minutes. The PRP is then challenged with 1 μM PGE1 for 2 min The reaction is stopped by adding 10 mM EDTA, followed immediately by boiling for 2 min. The mixture is cooled to 4° C. and the precipitated protein is pelleted. cAMP content in the supernatant is quantitated using an enzyme immunoassay kit (Pharmacia-Amersham, NJ) according to the instructions of the manufacturer.
In order to assess whether the compounds useful according to the invention might act through inhibition phosphodiesterase III, each was tested for its effect on PGE1-induced cAMP increase. Determination of platelet cAMP levels was performed as described by Liao et al., 1998, supra. Aliquots of PRP were exposed to increasing concentrations of the indicated compounds for 20 min. PRP was then challenged with 1 μM PGE1 for 2 min. The reaction was stopped with the addition of 10 mM EDTA followed immediately by boiling for 2 min. The mixture was then cooled to 4° C. and the precipitated protein was pelleted. Cyclic AMP content in the supernatant was then quantified using an enzyme immunoassay kit (Pharmacia-Amersham, NJ) according to the instructions of the manufacturer.

[4] = tested on: laser-induced thrombi in cremaster arterioles; format: in vivo
Description: A preferred animal model involves intravital microscopy of laser-induced thrombi. The method is described by Rosen et al., 2001, Am J Pathol 158, 1613–1622, which is incorporated herein by reference. Minor variations of that method were employed as described below.
Experimental mice are pre-anesthetized and surgically prepared. A tracheal tube is placed to facilitate breathing and the jugular vein is canulated to allow for maintenance of anesthetic and introduction of compound. The cremaster muscle is then exteriorized. The muscle is affixed over a glass slide, allowing illumination from below. A steady drip of a sodium-bicarbonate buffered salt solution is maintained throughout the experiment to keep the exposed muscle moist. Blood flow in the muscle is visualized using a 40× water immersion lens and epi-illuminated with an appropriately filtered light source. Alexa 488-labeled anti-mouse CD41 antibody is injected through the jugular canulus to label platelets in vivo.
Thrombosis is initiated by damaging the vessel wall (of a 30 μm vessel) with a laser pulse from a MicroPoint LASER attached to the microscope. A LASER pulse is delivered, causing damage in an area smaller than 1 μm. The recruitment of platelets to the thrombus is then monitored by the accumulation of (activated) Alexa 488-labeled platelets at the ablation site using fluorescence microscopy, and the process is recorded digitally. The method thus permits in vivo analysis of platelet activation as measured by platelet aggregation and thrombosis.
The degree of embolization in an untreated mouse can be quantified using software for image analysis, e.g., BioQuant True Color Windows (Biometrics, Nashville, Tenn.), as described in Rosen et al., 2001, supra. The software package permits the determination of the “integrated optical density” or IOD of the thrombus.
Using quantitative intravital fluorescence videomicroscopy with high temporal resolution (111 images/second), the effect of PDE3 inhibition on the platelet recruitment into thrombi was directly observed over time. Platelets were fluorescently labeled by infusing rat-anti-mouse CD41 and Alexa 488-anti-rat IgG through a cannulated jugular vein. The cremaster microvasculature was exposed and mapped and suitable arteriole segments were selected for laser-induced injury. A series of control injuries were generated prior to infusion of the inhibitory compound. The power and the number of laser pulses required to generate each thrombus was recorded. Platelet accumulation to the thrombi following laser ablation was recorded using digital videomicroscopy. The thrombus total fluorescence in each frame of the videos was analyzed using Slidebook software for digital videomicroscopy. The pyridazinone compound was then infused. Following a 15 minute incubation, a series of experimental injuries were generated 250 μm proximal, with relationship to blood flow, of the first injury and the resultant thrombi were recorded. The power and the number of pulses required to induce the control thrombus was used to induce the experimental thrombus. The control and experimental thrombi constituting a pair were compared for statistical analysis. The total fluorescence intensity of the thrombi before and after the infusion of pyridazinone compound was recorded.
Images from a representative experiment of the recruitment of fluorescently-labeled […] platelets into a growing thrombus over time is shown in FIG. 9A.

mouse platelets = details: in words
platelets [5] = experiment: platelet aggregation (aggregometer); format: cell-based, human; details: in words
Method: Platelet aggregation profiling is a standard methodology, generally performed with an instrument adapted for that express purpose, for example, a Platelet Aggregation Profiler (BioData, Horsham, Pa.). The assays can generally be performed according to the instructions of the manufacturer. As exemplary conditions, 400 μl of PRP are incubated with inhibitor for 15 minutes at room temperature. The sample is then incubated for 3 minutes at 37° C. in the Platelet Aggregation Profiler. The instrument is calibrated with platelet poor plasma serving as a blank. A baseline tracing is established by monitoring the light transmittance of PRP being stirred at 1200 rpm. Aggregation is initiated by the addition of SFLLR (200 μM) and the percent of platelet aggregation is measured by the change in light transmittance for 6 minutes following addition of SFLLR.

[6] = tested on: platelet protein palmitoylation; experiment: incorporation of [3H]-palmitate into platelet proteins; format: cell-based; details: 100 μM compound; 20 μM or 200 μM SFLLRN; in words
Method: Platelets were labeled with [^3H]-palmitate for 2 hours in the absence (lanes 1, 2, and 3) or presence (lanes 4, 5, and 6) of 100 μM JF081204{5C} for 2 hours. Labeled platelets were then incubated with 0 μM ([…]), 20 μM (lanes 2 and 5), or 200 μM SFLLRN (lanes 3 and 6). Platelet samples were lysed, separated by SDS-PAGE, Western blotted, and visualized with a tritium imager screen (Panel a). The activation of platelets by SFLLRN led to an increase incorporation of [^3H]-palmitate into platelet proteins, whereas the presence of JF081204{5C} inhibited this activation-dependent [^3H]-palmitate incorporation (Panel b). Western blot membrane from panel (a) was stained with Ponceau S to visualize proteins in the platelet lysates.
The incorporation of [^3H]-palmitate into platelet intracellular proteins was examined to determine the effect of JF081204{5C} on platelet protein palmitoylation. […] Exposure of platelets to either 20 μM or 200 μM SFLLRN increased the intensity of the labeling. Incubation of platelets with 100 μM of JF081204 {5C} inhibited the increase in [^3H]-palmitate incorporation induced by either 20 μM or 200 μM SFLLRN.

For O=C1CCc2cc(OCCCCc3nnnn3C3CCCCC3)ccc2N1 [cilostazol], the “increase of the distance of pain free walking” value [1] is given as “up to 59%”.
For Nc1cc2cccnc2c2ncccc12 [[1,10]Phenanthroline-5-ylamine, [1,10] Phenanthroline-5-ylamine], the “effect on PMA-induced platelet activation” value (platelets [2]; in words) was “did not inhibit” and the “effect on PGE1-stimulated cAMP levels in platelets” value [3] was “failed to augment”.
With Cn1cc(/C=N/NC(N)=O)c2ccccc21 [2-[(1-methyl-1H-indol-3-yl)methylene]-hydrazinecarboxamide] the “effect on ADP-induced activation” value (platelets [2]; ADP-induced, in words) was “little effect”, the “effect on PMA-induced platelet activation” value (platelets [2]; in words) was “little effect” and the “effect on PGE1-stimulated cAMP levels in platelets” value [3] was “augmented cAMP levels”.
In the case of “9-methylene-4-(alkyl)-2,3,4,9-tetrahydro-1H-cyclopenta(b)quinoline”, the “thrombosis following laser-induced injury (reduction)” value ([4]; bolus 6 mg/kg/5 min then continuous infusion 3 mg/kg/90 min, 36 thrombi in 5 mice) is reported as “greater than 80%” and the “activation of mouse platelets by several platelet agonists” value (mouse platelets) is reported as “inhibits activation of mouse platelets”.
With CC1CC(=O)NN=C1c1ccc(Cl)cc1 (stereo not drawn) [Structure 9, 6-(4-chlorophenyl)-5-methyl-4,5-dihydro-5 methyl-3(2H)-pyridazinone] the “effect on PMA-induced platelet activation” value (platelets [2]; in words) was “did not inhibit”.
For CCCCCn1c2c(c(=N)c3ccccc31)CCC2 [JF081204{5C}], the “IC50s for U46619-, A23187-, and PMA-induced P-selectin expression less potent than SFLLR” value (platelets [2]; U46619, A23187, PMA vs SFLLR) was “at least 150 fold”, the “median of maximum platelet accumulation compared to absence of compound” value ([4]; 3 mg/kg (P<0.002) and 6 mg/kg (P<0.02), in words) was “statistically significant decrease” and the “median stabilized platelet accumulation” value ([4]; 3 mg/kg (P<0.01) and 6 mg/kg (P<0.001), in words) was “dose-dependent inhibition”. The “delay in onset of platelet accumulation (time to 50% maximum platelet accumulation)” value ([4]; 1, 3 and 6 mg/kg, in words) was “statistically significant delay”, the “inhibition of U46619- and collagen-induced platelet aggregation” value (platelets [5]) was “not effective” and the “SFLLRN activation-dependent [3H]-palmitate incorporation into platelet proteins” value [6] was “inhibited”.
